Consider 20 molecules from patent publication US11154563B2, “Immunoproteasome inhibitors” (Principia Biopharma Inc., priority 2017, dated 2021).

In general, IC50 refers to the concentration needed to halve the response being measured.

Format in all cases: biochemical
Test [1] deals with immunoproteasome LMP7/B5i subunit (Homo sapiens, UniProt P20618+P28062). The experiment in a line: Caliper-based proteasome enzymatic activity assay, LMP7. The note with it: human recombinant immunoproteasome 0.3 nM, FAM-peptide substrate 1 μM, 3 h at rt. The method in brief: (§1)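 Recombinant human immunoproteasome or constitutive proteasome (0.3 nM) with 1 μM FAM-peptide in 20 mM Hepes pH 7.4, 0.015% SDS, 0.01% BSA; LMP7/β5c ran 3 h at rt and were stopped with 5 uM carfilzomib, LMP2 ran 2 h and was stopped with 6.7 uM ixazomib. Cleaved product quantified by microfluidic separation; IC50 from percent inhibition.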

Test [2] addresses constitutive proteasome β5c unit (Homo sapiens, UniProt P20618+P28074). The experiment in a line: Caliper-based proteasome enzymatic activity assay, β5c. The note with it: human recombinant constitutive proteasome 0.3 nM, FAM-peptide substrate 1 μM, 3 h at rt; read-out: β5c subunit IC50. The method, boiled down:
as §1

Test [3] concerns the target immunoproteasome LPM2/β1i subunit (Homo sapiens, UniProt P28065+P40306). Put plainly: Caliper-based proteasome enzymatic activity assay, LMP2. The conditions noted are these: human recombinant immunoproteasome 0.3 nM, FAM-peptide substrate 1 μM, 2 h at rt. As for the experimental part:
A Caliper-based proteasome assay (Caliper Life Sciences, Hopkinton, Mass.) was used to measure inhibition of the immunoproteasome LMP7/B5i subunit, the immunoproteasome LPM2/β1i subunit, and the constitutive proteasome β5c unit for a compound of Formula (I). For LMP7 and β5c, serial dilutions of test compounds were incubated with either human recombinant immunoprotcasome or constitutive proteasome (0.3 nM enzyme) and a carboxyfluorescein (FAM)-labeled peptide substrate FAM-TYETFKSIMKKSPF-NH2 (1 μM) at it for 3 h. The reaction was then terminated with a buffer containing the known proteasome inhibitor carfilzomib at a concentration of 5 uM. For LMP2, serial dilutions of test compounds were incubated with human recombinant immunoproteasome proteasome (0.3 nM enzyme) and a carboxyfluorescein (FAM)-labeled peptide substrate FAM-[…]-NH2 (1 μM) at rt for 2 h. The reaction was then terminated with a buffer containing the known proteasome inhibitor ixazomib at a concentration of 6.7 uM. The reaction buffer was 20 mM Hepes pH 7.4, 0.01% bovine serum albumin, 0.015% SDS, 0.5 mM EDTA, 1%0/DMSO. The peptide cleavage reaction product was quantified on a Caliper LabChip 3000. Percent inhibition was calculated for each compound dilution and the concentration that produced 50% inhibition was calculated. This value is presented as the IC50.

On to `CC(C)(C=C(C#N)C(=O)N1CCC[C@@H]1COC(=O)N[C@@H](Cc1ccccc1)B(O)O)N1CCN(C2COC2)CC1` [Example 17, ((R)-1-(((((R)-1-(2-cyano-4-methyl-4-(4-(oxetan-3-yl)piperazin-1-yl)pent-2-enoyl)pyrrolidin-2-yl)methoxy)carbonyl)amino)-2-phenylethyl)boronic acid], for which the IC50 in test [1] was 1.9 nM; in test [2] it was 2950 nM; in test [3] it was over 5000 nM.
With `Cc1ccc(C[C@H](NC(=O)OC[C@@H]2CCCCCN2C(=O)C(C#N)=CC(C)(C)C)B(O)O)cc1` [Example 33, ((R)-1-(((((S)-1-(2-cyano-4,4-dimethylpent-2-enoyl)azepan-2-yl)methoxy)carbonyl)amino)-2-(p-tolyl)ethyl)boronic acid], the IC50 was 41 nM in test [1], over 5000 nM in test [2] and over 5000 nM in test [3].
Consider `CC(C)(C=C(C#N)C(=O)N1CCC[C@@H]1COC(=O)N[C@@H](Cc1ccccc1)B(O)O)N1CCOCC1` [Example 23, ((R)-1-(((((R)-1-(2-cyano-4-methyl-4-morpholinopent-2-enoyl)pyrrolidin-2-yl)methoxy)carbonyl)amino)-2-phenylethyl)boronic acid], for which the IC50 is 2.6 nM in test [1], over 5000 nM in test [2] and over 5000 nM in test [3].
Regarding `Cc1ccc(C[C@H](NC(=O)OC[C@H]2CCCN2C(=O)C(C#N)=CC(C)(C)C)B(O)O)cc1` [Example 18, ((R)-1-(((((R)-1-(2-cyano-4,4-dimethylpent-2-enoyl)pyrrolidin-2-yl)methoxy)carbonyl)amino)-2-(p-tolyl)ethyl)boronic acid], the IC50 was 2 nM in test [1], 1540 nM in test [2] and over 5000 nM in test [3].
Consider `CC(C)(C)C=C(C#N)C(=O)N1C[C@@H]2C[C@@H]2[C@H]1COC(=O)N[C@@H](Cc1ccccc1)B(O)O` [Example 38], for which the IC50 in test [1] is 7 nM; in test [2], over 5000 nM; in test [3] it was over 5000 nM.
Turning to `C=CC(=O)N1CCCC[C@H]1COC(=O)N[C@@H](Cc1ccccc1)B(O)O` [Example 11, ((R)-1-(((((S)-1-acryloylpiperidin-2-yl)methoxy)carbonyl)amino)-2-phenylethyl)boronic acid], the IC50 is 957 nM in test [1], over 5000 nM in test [2] and 3240 nM in test [3].
Turning to `CC(C)(C=C(C#N)C(=O)N1CCC[C@@H]1COC(=O)N[C@@H](Cc1ccccc1)B(O)O)N1CCC(F)(F)CC1` [Example 21, ((R)-1-(((((R)-1-(2-cyano-4-(4,4-difluoropiperidin-1-yl)-4-methylpent-2-enoyl)pyrrolidin-2-yl)methoxy)carbonyl)amino)-2-phenylethyl)boronic acid], the IC50 stood at 1.4 nM in test [1], 1940 nM in test [2] and 4780 nM in test [3].
On to `CC(C)C=C(C#N)C(=O)N1CCC[C@H]1COC(=O)N[C@@H](Cc1ccccc1)B(O)O` [Example 12, ((R)-1-(((((S)-1-(2-cyano-4-methylpent-2-enoyl)pyrrolidin-2-yl)methoxy)carbonyl)amino)-2-phenylethyl)boronic acid], for which the concentration for half-maximal inhibition (IC50) in test [1] is 39 nM; in test [2], over 5000 nM; in test [3] it was over 5000 nM.
For the molecule `CC(C)(C=C(C#N)C(=O)N1CCCC[C@@H]1COC(=O)N[C@@H](Cc1ccc(C(F)(F)F)cc1)B(O)O)N1CCC(F)(F)C1` [Example 83, ((R)-1-(((((R)-1-(2-cyano-4-(3,3-difluoropyrrolidin-1-yl)-4-methylpent-2-enoyl)piperidin-2-yl)methoxy)carbonyl)amino)-2-(4-(trifluoromethyl)phenyl)ethyl)boronic acid], the values for the IC50 in test [1], in test [2] and in test [3] were 4.4 nM, 1220 nM and over 5000 nM, respectively.
On the same counts, the results for `CC(C)(C)C=C(C#N)C(=O)N1CCC[C@@H]1COC(=O)N[C@@H](Cc1coc2ccccc12)B(O)O` [Example 39, ((R)-2-(benzofuran-3-yl)-1-(((((R)-1-(2-cyano-4,4-dimethylpent-2-enoyl)pyrrolidin-2-yl)methoxy)carbonyl)amino)ethyl)boronic acid] are 1.2 nM, 187 nM and over 5000 nM.
Take `CC(C)C=C(C#N)C(=O)N1CCCC[C@H]1COC(=O)N[C@@H](Cc1ccccc1)B(O)O` [Example 13, ((R)-1-(((((S)-1 (2-cyano-4-methylpent-2-enoyl)piperidin-2-yl)methoxy)carbonyl)amino)-2-phenylethyl)boronic acid]: the half-maximal inhibitory concentration (IC50) in test [1] is 38 nM; in test [2], over 5000 nM; in test [3] it was 4040 nM.
`CC(C)(C=C(C#N)C(=O)N1C[C@@H]2C[C@@H]2[C@@H]1COC(=O)N[C@@H](Cc1ccccc1)B(O)O)N1CCC(F)(F)C1` [Example 74, ((R)-1-(((((1S,2R,5R)-3-(2-cyano-4-(3,3-difluoropyrrolidin-1-yl)-4-methylpent-2-enoyl)-3-azabicyclo[3.1.0]hexan-2-yl)methoxy)carbonyl)amino)-2-phenylethyl)boronic acid]: the IC50 in test [1] is 1.2 nM; in test [2], 925 nM; in test [3], 3360 nM.
`CC(C)(C=C(C#N)C(=O)N1CCCC[C@@H]1COC(=O)N[C@@H](Cc1ccccc1)B(O)O)N1CCC(F)(F)CC1` [Example 31, ((R)-1-(((((R)-1-(2-cyano-4-(4,4-difluoropiperidin-1-yl)-4-methylpent-2-enoyl)piperidin-2-yl)methoxy)carbonyl)amino)-2-phenylethyl)boronic acid]: the half-maximal inhibitory concentration (IC50) in test [1] is 12 nM; in test [2], 2390 nM; in test [3] it was over 5000 nM.
As for `Cc1ccc(C[C@H](NC(=O)OC[C@H]2CCCCCN2C(=O)C(C#N)=CC(C)(C)C)B(O)O)cc1` [Example 32, ((R)-1-(((((R)-1-(2-cyano-4,4-dimethylpent-2-enoyl)azepan-2-yl)methoxy)carbonyl)amino)-2-(p-tolyl)ethyl)boronic acid], the figures for the 50% inhibitory concentration (IC50) in test [1], in test [2] and in test [3] were 9.2 nM, 713 nM and over 5000 nM, respectively.
Take `CC(C)(C=C(C#N)C(=O)N1CCC[C@@H]1COC(=O)N[C@@H](Cc1ccccc1)B(O)O)N1CCCC1` [Example 34, ((R)-1-(((((R)-1-(2-cyano-4-methyl-4-(pyrrolidin-1-yl)pent-2-enoyl)pyrrolidin-2-yl)methoxy)carbonyl)amino)-2-phenylethyl)boronic acid]: the IC50 in test [1] is 14 nM; in test [2], 3370 nM; in test [3], over 5000 nM.
Take `CC(C)(C=C(C#N)C(=O)N1CCC[C@@H]1COC(=O)N[C@@H](Cc1coc2ccccc12)B(O)O)N1CCOCC1` [Example 40, ((R)-2-(benzofuran-3-yl)-1-(((((R)-(2-cyano-4-methyl-4-morpholinopent-2-enoyl)pyrrolidin-2-yl)methoxy)carbonyl)amino)ethyl)boronic acid]: the 50% inhibitory concentration (IC50) in test [1] is 1.3 nM; in test [2] it was 228 nM; in test [3], over 5000 nM.
For `CC(C)(C)C=C(C#N)C(=O)N1C[C@H]2C[C@H]2[C@H]1COC(=O)N[C@@H](Cc1ccccc1)B(O)O` [Example 22, ((R)-1-(((((1R,2S,5S)-3-(2-cyano-4,4-dimethylpent-2-enoyl)-3-azabicyclo[3.1.0]hexan-2-yl)methoxy)carbonyl)amino)-2-phenylethyl)boronic acid] the same measures were 1.8 nM, over 5000 nM and over 5000 nM.
On the same counts, the results for `C=CC(=O)N1CCC[C@@H]1COC(=O)N[C@@H](Cc1ccc(C)cc1)B(O)O` [Example 19, ((R)-1-(((((R)-1-acryloylpyrrolidin-2-yl)methoxy)carbonyl)amino)-2-(p-tolyl)ethyl)boronic acid] are 60 nM, 3260 nM and over 5000 nM.
In the case of `CC(C)(C=C(C#N)C(=O)N1CCCC[C@@H]1COC(=O)N[C@@H](Cc1ccccc1)B(O)O)N1CCCC1` [Example 27], the figures for the IC50 in test [1], in test [2] and in test [3] were 11 nM, 3480 nM and over 5000 nM, respectively.
On the same counts, the results for `CC(C)C[C@H](NC(=O)OC[C@H]1CCCCN1C(=O)C(C#N)=CC(C)(C)N1CCC(F)(F)C1)B(O)O` [Example 105, ((R)-1-(((((R)-1-(2-cyano-4-(3,3-difluoropyrrolidin-1-yl)-4-methylpent-2-enoyl)piperidin-2-yl)methoxy)carbonyl)amino)-3-methylbutyl)boronic acid] are 2.7 nM, 1450 nM and 2160 nM.
